Experimental findings from patent publication US20130196000A1, “COMBINATION THERAPY INCLUDING ISOPHO[…], ANALOGS, OR SALTS THEREOF” (ZIOPHARM ONCOLOGY, INC., priority 2012, published 2013) are described below.

The data set can be described thus: Multicenter phase Ib open-label dose-escalation study of IPM-tris plus carboplatin/etoposide (PaCE): safety, DLT and MTD. It counts as in vivo, human. The procedure:
A multicenter phase I, open-label, dose-escalation study assessing the safety and efficacy of IPM-tris in combination with carboplatin (C) and etoposide (E) (PaCE regimen) in SCLC and in other cancers in which C+E is considered appropriate was conducted. Tumor responses were assessed by RECIST 1.1 and relevant tumor markers.
To be eligible, each subject met each of the following criteria: (i) age >18 years; (ii) subject with documentation of a malignancy scheduled to receive etoposide and carboplatin therapy (including, but not limited to testicular cancer, thymoma, ovarian cancer, osteosarcoma, non-small cell lung cancer, and small cell lung cancer); (iii) ECOG Performance Status of 0 or 1; (iv) adequate bone marrow, liver, and renal function, as assessed by the following laboratory requirements conducted within 14 days prior to dosing; and (v) subjects for whom there is no curative standard therapy.
IPM tris(hydroxymethyl)methylammonium salt (IPM-tris) was given by intravenous (IV) infusion over approximately 30 minutes on days 1, 2, and 3 of each 21 day cycle. Each IPM-tris infusion to a subject was completed within 1 hour (and not more than 90 minutes) of dose preparation in the IV bag. Etoposide was given by IV infusion over approximately 60 minutes on days 1, 2, and 3 of each 21 day cycle. Carboplatin was given by IV infusion over approximately 30 minutes on day 1 of each 21 day cycle.
Each vial of IPM-tris was reconstituted with 14.6% sodium chloride for Injection, to a final concentration of 50.0 mg per mL. If the 14.6% sodium chloride diluent was not available, sites used 5.0%, 5.7%, 8.5%, or 0.9% sodium chloride for injection as the reconstitution diluent according to the same reconstitution instructions. Other standard sodium chloride solutions commercially available in other countries can be used to reconstituted IPM-tris. The IV infusion of IPM-tris was completed within 2.5 hours of reconstitution in the vial.
The doses of IPM-tris, etoposide, and carboplatin for each subject were calculated by the pharmacist based on the dose level and the subject's body surface area (BSA) on the first day of each cycle. BSA was calculated using their Institutional guidelines for calculating BSA or, the calculation for BSA by the Mosteller formula was used (note: SQRT=square root): […]
The maximum tolerable dose (MTD) of IPM-tris when administered in combination with etoposide and carboplatin at fixed doses (90 mg/m^2 and AUC 4, respectively) was determined An additional dose cohort was also evaluated using an escalated dose level of etoposide (100 mg/m^2) in combination with the IPM-tris MTD and carboplatin (AUC 4). Once the recommended doses were determined, this combination regimen was further studied in subjects with small cell lung cancer.

Molecules are shown by their SMILES.

In the case of `NC(CO)(CO)CO.O=P(O)(NCCCl)NCCCl` [IPM-tris, IPM tris(hydroxymethyl)methylammonium salt], where the note is “at 150 mg/m^2 of IPM-tris”, the “patients with dose limiting toxicity (neutropenic fever)” value is “one”. The “maximum tolerated dose of IPM-tris” value (in combination with etoposide 90 mg/m^2 and carboplatin AUC 4 (Cohort 2), IV days 1, 2, 3 of 21 day cycle) was “**Based on dose escalation cohorts completed prior to Amendment 6, the maximum tolerated dose of IPM-tris was determined to be 130 mg/m^2 when administered in combination with etoposide 90 mg/m^2 and carboplatin AUC 4 (Cohort 2)”; the “maximum tolerated dose of IPM-tris” value (in combination with etoposide 100 mg/m^2 and carboplatin AUC 4) was 130 mg/m^2. Besides, the “IPM-tris dosage found to result in DLT” value (in combination with etoposide and carboplatin) came out at 150 mg/m^2/day.
